Experimental data as given in US8501713B2, “Drug combinations for the treatment of duchenne muscular dystrophy” (Summit Corporation PLC, priority 2007, dated 2013).

system: Utrophin A promoter linked to a luciferase reporter gene; experiment: Luciferase reporter assay (murine H2K cells); format: cell-based; settings: Mus musculus, H2K mdx, luciferase level relative to control; H2K/mdx/Utro A reporter cells; compound 10 μM final concentration; read-out: Activity
In short: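 Compound at 10 μM final was applied for 48 hrs to plated H2K mdx myoblasts (33° C, 10% CO2, interferon-containing medium) bearing a luciferase gene under the utrophin A promoter. Luminescence from lysed cells served as read-out.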

SMILES | activity at 10 µM [%]
Clc1ccc2oc(-c3ccncc3)nc2c1 [Example 330, 5-chloro-2-(pyridin-4-yl)benzo[d]oxazole] | < 200
Clc1ccc2nc(-c3ccncc3)oc2c1 [Example 331, 6-chloro-2-(pyridin-4-yl)benzo[d]oxazole] | < 200
CC(=O)Nc1ccc(-c2nc3ccc(Cl)cc3o2)cc1 [Example 332, N-(4-(6-chlorobenzo[d]oxazol-2-yl)phenyl)acetamide] | 301 to 400
CC(C)C(=O)Nc1ccc(-c2nc3ccc(Cl)cc3o2)cc1 [Example 333, N-(4-(6-chlorobenzo[d]oxazol-2-yl)phenyl)isobutyramide] | 201 to 300
O=C(Nc1ccc(-c2nc3ccc(Cl)cc3o2)cc1)c1cccs1 [Example 334, N-(4-(6-chlorobenzo[d]oxazol-2-yl)phenyl)thiophene-2-carboxamide] | < 200
CC(C)CN(CC(C)C)c1ccc2oc(-c3ccc(Cl)cc3)nc2c1 [Example 335, 2-(4-chlorophenyl)-N,N-diisobutylbenzo[d]oxazol-5-amine] | < 200
Nc1ccc(-c2nc3cc(Br)ccc3o2)cc1 [Example 336, 4-(5-bromobenzo[d]oxazol-2-yl)aniline] | > 401
Nc1ccc(C(=O)Nc2ccc(-c3nc4cc(Br)ccc4o3)cc2)cc1 [Example 337, 4-amino-N-(4-(5-bromobenzo[d]oxazol-2-yl)phenyl)benzamide] | < 200
Nc1ccc(-c2ccc3oc(-c4ccc(Cl)cc4)nc3c2)cn1 [Example 338, 5-(2-(4-chlorophenyl)benzo[d]oxazol-5-yl)pyridin-2-amine] | > 401
Clc1ccc(-c2cc3cc(-c4ccccc4)ccc3[nH]2)cc1 [Example 339, 2-(4-chlorophenyl)-5-phenyl-1H-indole] | < 200
CC(C)C(=O)Nc1ccc2oc(-c3ccc(F)cc3Cl)nc2c1 [Example 340, N-(2-(2-chloro-4-fluorophenyl)benzo[d]oxazol-5-yl)isobutyramide] | > 401
CC(C)C(=O)Nc1ccc2oc(-c3c(F)cccc3Cl)nc2c1 [Example 341, N-(2-(2-chloro-6-fluorophenyl)benzo[d]oxazol-5-yl)isobutyramide] | < 200
CC(C)C(=O)Nc1ccc2oc(-c3cccc(Cl)c3F)nc2c1 [Example 342, N-(2-(3-chloro-2-fluorophenyl)benzo[d]oxazol-5-yl)isobutyramide] | > 401
CC(C)C(=O)Nc1ccc2oc(-c3ccc(Cl)cc3F)nc2c1 [Example 343, N-(2-(4-chloro-2-fluorophenyl)benzo[d]oxazol-5-yl)isobutyramide] | > 401
CC(C)C(=O)Nc1ccc2oc(-c3cc(F)ccc3Cl)nc2c1 [Example 344, N-(2-(2-chloro-5-fluorophenyl)benzo[d]oxazol-5-yl)isobutyramide] | < 200
O=C(CC(F)(F)F)Nc1ccc2oc(-c3ccc(Cl)cc3)nc2c1 [Example 345, N-(2-(4-chlorophenyl)benzo[d]oxazol-5-yl)-3,3,3-trifluoropropanamide] | 301 to 400
O=C(Nc1ccc2oc(-c3ccc(Cl)cc3)nc2c1)C1CCCC1 [Example 346, N-(2-(4-chlorophenyl)benzo[d]oxazol-5-yl)cyclopentanecarboxamide] | < 200
CC(C)C(=O)Nc1cc2oc(-c3ccc(Cl)cc3)nc2cc1Cl [Example 347, N-(5-chloro-2-(4-chlorophenyl)benzo[d]oxazol-6-yl)isobutyramide] | 201 to 300
O=[N+]([O-])c1ccc2oc(-c3ccc(OC(F)(F)F)cc3)nc2c1 [Example 348, 5-nitro-2-(4-(trifluoromethoxy)phenyl)benzo[d]oxazole] | 201 to 300
CC(C)C(=O)Nc1ccc2oc(C3CCOCC3)nc2c1 [Example 349, N-(2-(tetrahydro-2H-pyran-4-yl)benzo[d]oxazol-5-yl)isobutyramide] | < 200
Nc1ccc2oc(-c3ccc(OC(F)(F)F)cc3)nc2c1 [Example 350, 2-(4-(trifluoromethoxy)phenyl)benzo[d]oxazol-5-amine] | 201 to 300
O=C(Nc1ccc2oc(-c3ccc(Cl)c(Cl)c3)nc2c1)C1CC1 [Example 351, N-(2-(3,4-dichlorophenyl)benzo[d]oxazol-5-yl)cyclopropanecarboxamide] | > 401
O=C(CC(F)(F)F)Nc1ccc2oc(-c3ccc(Cl)c(Cl)c3)nc2c1 [Example 352, N-(2-(3,4-dichlorophenyl)benzo[d]oxazol-5-yl)-3,3,3-trifluoropropanamide] | > 401
O=C(Nc1ccc2nc(-c3ccc(Cl)cc3)oc2c1)C1CC1 [Example 353, N-(2-(4-chlorophenyl)benzo[d]oxazol-6-yl)cyclopropanecarboxamide] | 201 to 300
CC(C)C(=O)Nc1ccc2nc(-c3cccc(Cl)c3Cl)oc2c1 [Example 354, N-(2-(2,3-dichlorophenyl)benzo[d]oxazol-6-yl)isobutyramide] | 301 to 400

SMILES | activity at 10 µM [%]
CC(C)C(=O)Nc1ccc2oc(-c3ccc(OC(F)(F)F)cc3)nc2c1 [Example 355, N-(2-(4-(trifluoromethoxy)phenyl)benzo[d]oxazol-5-yl)isobutyramide] | < 200
Nc1ccc(-c2nc3cc(-c4ccc(Cl)cc4)ccc3o2)cc1 [Example 356, 4-(5-(4-chlorophenyl)benzo[d]oxazol-2-yl)aniline] | < 200
O=[N+]([O-])c1ccc2oc(N3CCOCC3)nc2c1 [Example 357, 2-morpholino-5-nitrobenzo[d]oxazole] | < 200
CC(=O)Nc1ccc(-c2ccc3oc(-c4ccc(Cl)cc4)nc3c2)cn1 [Example 358, N-(5-(2-(4-chlorophenyl)benzo[d]oxazol-5-yl)pyridin-2-yl)acetamide] | < 200
CC(=O)Nc1ccc(-c2nc3cc(Br)ccc3o2)cc1 [Example 359, N-(4-(5-bromobenzo[d]oxazol-2-yl)phenyl)acetamide] | > 401
Nc1ccc2oc(N3CCOCC3)nc2c1 [Example 360, 2-morpholinobenzo[d]oxazol-5-amine] | < 200
O=C(Nc1ccc2oc(-c3ccc(Cl)cc3)nc2c1)[C@@H]1CCCN1 [Example 362, (S)-N-(2-(4-chlorophenyl)benzo[d]oxazol-5-yl)pyrrolidine-2-carboxamide] | 201 to 300
O=C(CC(F)(F)F)Nc1ccc2oc(-c3cccc(Cl)c3Cl)nc2c1 [Example 363, N-(2-(2,3-dichlorophenyl)benzo[d]oxazol-5-yl)-3,3,3-trifluoropropanamide] | > 401
CC(C)C(=O)Nc1ccc2oc(C3CCCC3)nc2c1 [Example 364, N-(2-cyclopentylbenzo[d]oxazol-5-yl)isobutyramide] | < 200
CC(=O)Nc1ccc(-c2nc3cc(NC(C)=O)ccc3o2)cc1 [Example 365, N-(4-(5-acetamidobenzo[d]oxazol-2-yl)phenyl)acetamide] | < 200
O=[N+]([O-])c1ccc2oc(-c3ccco3)nc2c1 [Example 366, 2-(furan-2-yl)-5-nitrobenzo[d]oxazole] | < 200
CC(=O)Nc1ccc(-c2ccc3[nH]c(-c4ccc(Cl)cc4)cc3c2)cc1 [Example 367, N-(4-(2-(4-chlorophenyl)-1H-indol-5-yl)phenyl)acetamide] | < 200
CC(C)C(=O)Nc1ccc2oc(-c3cccc(C(F)(F)F)c3Cl)nc2c1 [Example 368, N-(2-(2-chloro-3-(trifluoromethyl)phenyl)benzo[d]oxazol-5-yl)isobutyramide] | < 200
Nc1ccc2nc(-c3ccc(Cl)c(Cl)c3)oc2c1 [Example 369, 2-(3,4-dichlorophenyl)benzo[d]oxazol-6-amine] | > 401
CC(C)C(=O)Nc1ccc2nc(-c3ccc(Cl)c(Cl)c3)oc2c1 [Example 370, N-(2-(3,4-dichlorophenyl)benzo[d]oxazol-6-yl)isobutyramide] | > 401
O=[N+]([O-])c1cc2oc(-c3ccc4c(c3)OCO4)nc2cc1Cl [Example 371, 2-(benzo[d][1,3]dioxol-5-yl)-5-chloro-6-nitrobenzo[d]oxazole] | 301 to 400
CC(=O)Nc1ccc(-c2nc3cc(-c4ccc(Cl)cc4)ccc3o2)cc1 [Example 372, N-(4-(5-(4-chlorophenyl)benzo[d]oxazol-2-yl)phenyl)acetamide] | < 200
CC(=O)Nc1ccc2oc(-c3ccc4ccccc4c3)nc2c1 [Example 373, N-(2-(naphthalen-2-yl)benzo[d]oxazol-5-yl)acetamide] | > 401
CC(=O)Nc1ccc(-c2nc3cc(NC(=O)C(C)C)ccc3o2)cc1 [Example 374, N-(2-(4-acetamidophenyl)benzo[d]oxazol-5-yl)isobutyramide] | < 200
CC(C)C(=O)Nc1ccc2cc(-c3ccccc3)[nH]c2c1 [Example 375, N-(2-phenyl-1H-indol-6-yl)isobutyramide] | < 200
O=C(Nc1ccc2oc(-c3cccc(Cl)c3Cl)nc2c1)c1cccc(Cl)c1Cl [Example 376, 2,3-dichloro-N-(2-(2,3-dichlorophenyl)benzo[d]oxazol-5-yl)benzamide] | < 200
CN[C@@H](C)C(=O)Nc1ccc2oc(-c3ccc(Cl)cc3)nc2c1 [Example 377, (S)-N-(2-(4-chlorophenyl)benzo[d]oxazol-5-yl)-2-(methylamino)propanamide] | 301 to 400
CC(C)C(=O)Nc1ccc2ccn(C)c2c1 [Example 378, N-(1-methyl-1H-indol-6-yl)isobutyramide] | < 200
O=[N+]([O-])c1ccc2oc(SCc3ccc(Cl)cc3)nc2c1 [Example 379, 2-(4-chlorobenzylthio)-5-nitrobenzo[d]oxazole] | < 200

same assay, conditions: luciferase level relative to control; H2K/mdx/Utro A reporter cells; compound 10 μM final concentration

SMILES | Activity
Clc1ccc(-c2nc3cc4c(cc3o2)OCO4)cc1Cl [Example 361, 2-(3,4-chlorophenyl)-5,6-methylenedioxybenzoxazole] | + (Up to 200% relative to control)
